Test results taken from ChEMBL document CHEMBL4602602, “Structure-activity relationship (SAR) studies of synthetic glycogen synthase kinase-3β inhibitors: A critical review” (Eur J Med Chem, 2019).

biological target: T1, Glycogen synthase kinase-3 beta (Homo sapiens, UniProt P49841); assay: Inhibition of full length recombinant His-tagged human Glycogen synthase kinase-3 beta expressed in Baculovirus expression system; details: not given
T1 sequence (P49841 whole entry): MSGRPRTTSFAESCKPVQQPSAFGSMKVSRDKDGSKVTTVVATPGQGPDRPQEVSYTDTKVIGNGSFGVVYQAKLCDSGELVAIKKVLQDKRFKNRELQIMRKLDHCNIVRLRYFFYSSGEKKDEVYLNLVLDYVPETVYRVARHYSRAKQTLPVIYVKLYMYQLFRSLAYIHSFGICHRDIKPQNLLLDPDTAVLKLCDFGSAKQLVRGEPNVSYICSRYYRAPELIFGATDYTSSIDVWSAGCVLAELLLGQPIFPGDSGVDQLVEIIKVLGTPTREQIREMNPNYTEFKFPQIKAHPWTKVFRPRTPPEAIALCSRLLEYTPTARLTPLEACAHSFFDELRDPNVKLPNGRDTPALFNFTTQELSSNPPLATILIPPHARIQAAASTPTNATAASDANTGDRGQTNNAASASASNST

Work on NCCCn1cc(C2=C(c3cccc4ccccc34)C(=O)NC2=O)c2cccnc21 yielded an IC50 of 31 nM.

biological target: not listed separately; assay: Inhibition of full length recombinant His-tagged human Glycogen synthase kinase-3 beta expressed in Baculovirus expression system; details: not given

Compared with O=C1NC(=O)C(c2cn(CCCO)c3ncccc23)=C1c1ccccc1Cl, COc1ccccc1C1=C(c2cn(CCCO)c3ncccc23)C(=O)NC1=O is 2.5-fold lower in IC50: 10 nM for the first, 4 nM for the second. The second is the more potent here.

First: O=C1NC(=O)C(c2cn(CCCO)c3ncccc23)=C1c1ccccc1C(F)(F)F
Second: CN(C)CCCn1cc(C2=C(c3cccc4ccccc34)C(=O)NC2=O)c2cccnc21
The IC50 of the first is 10-fold lower: 14 nM for the first, 140 nM for the second. The first is the more potent here.

tested on: not listed separately; assay: Activation of GSK-3 in HEK293 cells assessed as induction in beta-catenin-LEF/TCF regulated reporter gene transcription; type: cell-based; details: Homo sapiens

In the case of Cn1cc(C2=C(c3ccc(Cl)cc3Cl)C(=O)NC2=O)c2ccccc21 [SB-216763], the EC50 is reported as 3600 nM.

tested on: HEK293; assay: Activation of GSK-3 in HEK293 cells assessed as induction in beta-catenin-LEF/TCF regulated reporter gene transcription at 5 uM relative to control; type: cell-based; details: Homo sapiens

Work on Cn1cc(C2=C(c3ccc(Cl)cc3Cl)C(=O)NC2=O)c2ccccc21 [SB-216763] yielded a fold change (FC) of 2.5.

biological target: T1, Glycogen synthase kinase-3 beta; assay: Inhibition of Glycogen synthase kinase-3 beta (unknown origin); details: not given

First: Cc1ccc2[nH]nc(C(=O)NCC3CCN(C(=O)Nc4ccccc4)CC3)c2c1
Second: O=C(CSc1nnc(Cn2c(C(F)(F)F)nc3ccccc32)o1)Nc1ccccc1
The IC50 of the first is 4.9-fold higher: 640 nM for the first, 130 nM for the second.

Compared with COc1ccc(/C=C/C(O)=C/C(=O)/C=C/c2ccc(OCc3ccccc3)cc2)cc1OC, COc1ccc(NC(=O)c2ccc(NC3=C(c4ccccc4)C(=O)NC3=O)cc2)cc1 is 7.5-fold lower in IC50: 900 nM for the first, 120 nM for the second.

First: FC(F)(F)c1nc2ccccc2n1Cc1nnc(SCc2cn(-c3cccnc3)nn2)o1
Second: FC(F)(F)c1nc2ccccc2n1Cc1nnc(SCc2cn(-c3ccccc3)nn2)o1
The IC50 of the first is 2.1-fold lower: 150 nM for the first, 320 nM for the second. The first is the more potent here.

CCc1ccc(-n2cc(CSc3nnc(Cn4c(C(F)(F)F)nc5ccccc54)o3)nn2)cc1 and Fc1ccccc1-n1cc(CSc2nnc(Cn3c(C(F)(F)F)nc4ccccc43)o2)nn1 are within 1.5-fold of each other in IC50: 390 nM for the first, 270 nM for the second.

Going from C=CC(=O)Nc1cccc(C2=C(c3cn(C)c4cc(OC)ccc34)C(=O)NC2=O)c1 to C=CC(=O)Nc1cccc(C2=C(c3cn(C)c4cc(F)ccc34)C(=O)NC2=O)c1, the IC50 falls from 690 nM to 199 nM (3.5-fold).

First: C=CC(=O)Nc1cccc(C2=C(c3cn(C)c4ccc(F)cc34)C(=O)NC2=O)c1
Second: C=CC(=O)Nc1cccc(C2=C(c3cn(C(C)C)c4ncccc34)C(=O)NC2=O)c1
The IC50 of the first is 4.4-fold higher: 150 nM for the first, 34 nM for the second. The second is the more potent here.

Going from COc1ccc(NC(=O)c2ccc(NC3=C(c4ccc(OC)cc4)C(=O)NC3=O)cc2)cc1 to COc1ccc(C2=C(Nc3ccc(C(=O)Nc4ccc(Cl)cc4)cc3)C(=O)NC2=O)cc1, the IC50 rises from 90 nM to 190 nM (2.1-fold). The first is the more potent here.

Going from COc1ccc(C2=C(Nc3ccc(C(=O)Nc4ccccc4)cc3)C(=O)NC2=O)cc1 to CC(C)n1cc(C2=C(c3cccc(NC(=O)CF)c3)C(=O)NC2=O)c2cccnc21, the IC50 falls from 170 nM to 17 nM (10-fold).

With O=C(CSc1nnc(Cn2c(C(F)(F)F)nc3ccccc32)o1)Nc1ccc(F)cc1 the IC50 was 200 nM.

biological target: T1, Glycogen synthase kinase-3 beta; assay: Inhibition of Glycogen synthase kinase-3 beta in human SH-SY5Y cells after 2 hrs by ELISA; type: cell-based; details: not given

Going from COc1ccc(-c2cc(=O)c3c(OC)c([C@H]4O[C@H](C(=O)N[C@H](C)C(F)(F)F)[C@@H](O)[C@H](O)[C@H]4O)c(OC)cc3o2)cc1OC to COc1ccc(-c2cc(=O)c3c(OC)c([C@H]4O[C@H](C(=O)N[C@@H](C)C(F)(F)F)[C@@H](O)[C@H](O)[C@H]4O)c(OC)cc3o2)cc1OC, the IC50 falls from 2300 nM to 590 nM (3.9-fold).

COc1ccc(-c2cc(=O)c3c(OC)c([C@H]4O[C@H](CO)[C@@H](O)[C@H](O)[C@H]4O)c(OC)cc3o2)cc1OC and COc1ccc(-c2cc(=O)c3c(OC)c([C@H]4O[C@H](C(=O)O)[C@@H](O)[C@H](O)[C@H]4O)c(OC)cc3o2)cc1OC are within 1.5-fold of each other in IC50: 239000 nM for the first, 237000 nM for the second.

biological target: T1, Glycogen synthase kinase-3 beta; assay: Inhibition of Glycogen synthase kinase-3 beta (unknown origin) after 30 mins by Kinase-Glo assay; details: not given

Going from CN1C(=O)CC(c2ccccc2)N=C1SCc1cn(-c2cccc([N+](=O)[O-])c2)nn1 (stereo not given) to CN1C(=O)CC(c2ccccc2)N=C1SCc1cn(-c2ccccc2)nn1 (stereo not given), the IC50 rises from 153 nM to 916 nM (6-fold).

Cc1ccc(-n2cc(CSC3=NC(c4ccccc4)CC(=O)N3C)nn2)cc1C (stereo not given) and CCc1ccc(-n2cc(CSC3=NC(c4ccccc4)CC(=O)N3C)nn2)cc1 (stereo not given) are within 1.5-fold of each other in IC50: 82 nM for the first, 94 nM for the second.

Going from CN1C(=O)CC(c2ccccc2)N=C1SCc1cn(-c2ccccc2F)nn1 (stereo not given) to COc1ccccc1-n1cc(CSC2=NC(c3ccccc3)CC(=O)N2C)nn1 (stereo not given), the IC50 rises from 122 nM to 1310 nM (11-fold). The first is the more potent here.

In the case of CN1C(=O)CC(c2ccccc2)N=C1SCc1cn(-c2ccc(C(C)(C)C)cc2)nn1 (stereo not given), the IC50 is reported as 1340 nM.
